Assay results: patent US8765396B2, “Method of screening a test agent for activity to modulate an oxidative demethylation enzyme” (Arbor Assays LLC, priority 2009, dated 2014)

Target: T1, human histone demethylase JMJD2A (catalytic domain, residues 1-350) (Homo sapiens, UniProt O75164)
T1 construct: recombinantly produced catalytic domain, residues 1-350, of the human histone demethylase JMJD2A
T1 sequence (O75164 1-350): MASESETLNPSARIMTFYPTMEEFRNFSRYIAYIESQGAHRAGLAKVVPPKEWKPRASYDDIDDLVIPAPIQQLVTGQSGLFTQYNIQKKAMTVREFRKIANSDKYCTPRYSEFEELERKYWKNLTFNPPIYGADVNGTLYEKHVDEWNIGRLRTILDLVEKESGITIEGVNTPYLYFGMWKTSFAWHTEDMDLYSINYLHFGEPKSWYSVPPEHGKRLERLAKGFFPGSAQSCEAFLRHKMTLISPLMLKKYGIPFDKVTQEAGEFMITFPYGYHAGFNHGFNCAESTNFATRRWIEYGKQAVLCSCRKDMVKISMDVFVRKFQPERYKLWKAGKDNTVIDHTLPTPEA
Test: Jumonji type histone demethylase (JMJD2A) activity assay with Luminos reagent formaldehyde fluorescence detection
Assay type: biochemical
Conditions: 1.0 mM NOG; 0.5 mM 2-OG, 0.3 mM H3K9me3 peptide, 5 μM JMJD2A, 37° C., 30 minutes; triplicate
Protocol: A series of demethylase assays with Luminos reagent are performed. These assays are conducted with recombinantly produced catalytic domain, residues 1-350, of the human histone demethylase JMJD2A that demethylates the trimethylated forms of Lys9 and Lys36 in histone H3.
A positive control assay is performed using a 100 microliter assay cocktail of 20 mM HEPES pH 7.5, 50 mM NaCl, 1 mM Sodium Ascorbate, 0.05 mM FeSO4, and 5 μM JMJD2A. The assay is initiated by the addition of the cofactor 2-oxoglutarate (2-OG, 0.5 mM) and a 15-residue histone H3 trimethylated Lys9 (H3K9me3) substrate peptide (0.3 mM, H2N-[…](tri-methyl)STGGKA-amide) (SEQ ID NO. 1).
Three negative control reactions are performed in which 2-OG, the H3K9me3 peptide, and JMJD2A are omitted, respectively. […] Specifically, reactions are performed with 1.0 mM N-oxalylglycine (NOG), a competitive inhibitor of 2-OG, and desferoxamine (0.2 mM), a potent Fe(II) chelator that inhibits the oxidative reaction catalyzed by Fe(II)-dependent JmjC demethylases. […] Fifty microliters of the Luminos reagent solution prepared as described in Example 1 is then added to each reaction and the fluorescence is allowed to develop at 37° C. for 30 minutes. The fluorescence of the formaldehyde-Luminos reagent adduct is measured at 510 nm using an excitation wavelength of 440 nm with a Tecan Safire 2 microplate reader. […]

O=C(O)CNC(=O)C(=O)O [NOG, N-oxalylglycine]
diminishes fluorescence in comparison to the positive control assay: two-fold
